{
  "source": "patent US8076302B2",
  "about": "“Pyrimidine nucleoside derivatives and salts thereof” (aRigen Pharmaceuticals, Inc., priority 2007, dated 2011)",
  "key": {"VZV": {"test_system": "VZV", "experiment": "In vitro antiviral test, 50% plaque formation inhibition, anti-VZV activity", "assay_type": "cell-based, varicella-zoster virus (VZV)", "protocol": "(§1) The compounds of the present invention were measured for their in vitro antiviral activity (anti-HSV-1 activity, anti-VZV activity) by using human fetal lung-derived cells in an assay for 50% plaque formation inhibition (Japanese Journal of Chemotherapy, Vol. 38, No. 3, 256-261, 1990)."}, "[1]": {"test_system": "HSV-1 infection in mouse skin", "experiment": "In vivo antiviral test, HSV-1 mouse skin infection model (creams)", "conditions": "HSV-1-infected mice, cream; for Incidence rate: affected/total animals", "protocol": "Creams were prepared for the compounds of the present invention according to Formulation Example 2 and tested for their therapeutic effect on HSV-1 infection in mouse skin. Moreover, skin symptoms in the HSV-1-infected mice were scored (Antiviral Research, 17, 133-143, 1992), and the time course of changes in their average lesion scores is shown in FIG. 1.\nAccording to the ratio indicated above, creams were prepared in a routine manner and provided for Pharmacological Test Example 2."}, "HSV-1": {"test_system": "HSV-1", "experiment": "In vitro antiviral test, 50% plaque formation inhibition, anti-HSV-1 activity", "assay_type": "cell-based, herpes simplex virus type 1 (HSV-1)", "protocol": "as §1"}, "[2]": {"test_system": "herpes simplex virus type 1 (HSV-1) and varicella-zoster virus (VZV)", "conditions": "Patent Document 1; cited from earlier work"}, "HSV-1 infection in mice": {"test_system": "HSV-1 infection in mice", "conditions": "compared with acyclovir; Non-patent Document 1; cited from earlier work"}, "uninfected cells": {"test_system": "uninfected cells", "conditions": "cited from earlier work"}, "[3]": {"conditions": "Human alphaherpesvirus 3, read-out: Anti-VZV activity (ED50)"}, "[4]": {"conditions": "Human alphaherpesvirus 1, read-out: Anti-HSV-1 activity (ED50)"}, "[5]": {"conditions": "Human alphaherpesvirus 3, 50% plaque formation inhibition, human fetal lung-derived cells, read-out: Anti-VZV activity (ED50)"}, "[6]": {"conditions": "Human alphaherpesvirus 1, effective concentration required to reduce the number of plaques to 50%, human fetal lung-derived cells, read-out: Anti-HSV-1 activity (ED50)"}},
  "note": "Where a name gives a salt, the structure may show the parent alone. Read-outs that look alike come from different tables or passages of the source.",
  "data": [
    {"smiles": "CC(C)C(N)C(=O)OCC1OC(n2cc(/C=C/Cl)c(=O)[nH]c2=O)C(O)C1O", "note": "[Compound 2, 1-[5′-0-(L-valine)-β-D-arabinofuranosyl]-(E)-5-(2-chlorovinyl)uracil hydrochloride]", "values": [
      {"measurement": "EC50", "setting": "VZV; [3]", "value": 0.019, "unit": "µM"},
      {"measurement": "Incidence rate", "setting": "[1]", "value": "8/8"},
      {"measurement": "EC50", "setting": "HSV-1; [4]", "value": 0.12, "unit": "µM"}
    ]},
    {"smiles": "O=C(OCC1OC(n2cc(/C=C/Cl)c(=O)[nH]c2=O)C(O)C1O)C1CCNCC1", "note": "[Compound 1, (E)-5-(2-chlorovinyl)-1-[5′-O-(piperidine-4-carboxyl)-β-D-arabinofuranosyl]uracil hydrochloride]", "values": [
      {"measurement": "EC50", "setting": "VZV; [3]", "value": 0.046, "unit": "µM"},
      {"measurement": "Incidence rate", "setting": "[1]; hydrochloride", "value": "4/8"},
      {"measurement": "EC50", "setting": "HSV-1; [4]", "value": 0.4, "unit": "µM"}
    ]},
    {"smiles": "O=c1[nH]c(=O)n([C@@H]2O[C@H](CO)[C@@H](O)[C@@H]2O)cc1/C=C/Cl", "note": "[CVAU, 1-β-D-arabinofuranosyl-(E)-5-(2-chlorovinyl)uracil, reference compound]", "values": [
      {"measurement": "Activity compared with sorivudine", "setting": "[2]", "value": "the same activity as sorivudine"},
      {"measurement": "EC50", "setting": "VZV; [5]", "value": 0.0089, "unit": "µM"},
      {"measurement": "Incidence rate", "setting": "[1]", "value": "6/8"},
      {"measurement": "Survival rate", "setting": "[1]; survivors/total animals, chi-square test vs control", "value": "7/8 P < 0.01"},
      {"measurement": "EC50", "setting": "HSV-1; [6]", "value": 0.075, "unit": "µM"}
    ]},
    {"smiles": "CN1CCC(C(=O)OCC2OC(n3cc(/C=C/Cl)c(=O)[nH]c3=O)C(O)C2O)CC1", "note": "[Compound 5, (E)-5-(2-chlorovinyl)-1-[5′-O—(N-methylpiperidine-4-carboxyl)-β-D-arabinofuranosyl]uracil hydrochloride]", "values": [
      {"measurement": "EC50", "setting": "VZV; [5]", "value": 0.047, "unit": "µM"},
      {"measurement": "EC50", "setting": "HSV-1; [6]", "value": 0.56, "unit": "µM"}
    ]},
    {"smiles": "O=C(OCC1OC(n2cc(/C=C/Cl)c(=O)[nH]c2=O)C(O)C1O)c1ccncc1", "note": "[Compound 4, (E)-5-(2-chlorovinyl)-1-[5′-O-(pyridine-4-carboxyl)-β-D-arabinofuranosyl]uracil hydrochloride]", "values": [
      {"measurement": "EC50", "setting": "VZV; [5]", "value": 0.021, "unit": "µM"},
      {"measurement": "EC50", "setting": "HSV-1; [6]", "value": 0.13, "unit": "µM"}
    ]},
    {"smiles": "O=C(OCC1OC(n2cc(/C=C/Cl)c(=O)[nH]c2=O)C(O)C1O)c1cccnc1", "note": "[Compound 3, (E)-5-(2-chlorovinyl)-1-[5′-O-(pyridine-3-carboxyl)-β-D-arabinofuranosyl]uracil hydrochloride]", "values": [
      {"measurement": "EC50", "setting": "VZV; [5]", "value": 0.052, "unit": "µM"},
      {"measurement": "EC50", "setting": "HSV-1; [6]", "value": 0.49, "unit": "µM"}
    ]},
    {"smiles": "O=c1[nH]c(=O)n([C@@H]2O[C@H](CO)[C@@H](O)[C@@H]2O)cc1/C=C/Br", "note": "[Sorivudine, 1-β-D-arabinofuranosyl-(E)-5-(2-bromovinyl)uracil]", "values": [
      {"measurement": "Usefulness as external formulation for HSV-1 infection in mice", "setting": "HSV-1 infection in mice", "value": "as useful as acyclovir"},
      {"measurement": "Cytotoxicity", "setting": "uninfected cells", "value": "extremely low"}
    ]}
  ]
}
